These results are taken from patent US12577247B2 (BUGWORKS RESEARCH, INC., priority 2021, dated 2026).

As usually defined, the IC50 is the concentration that inhibits the measured activity by half.

Experiment [1] has as its target T1, A2B receptor (Homo sapiens, UniProt P29275).
T1 sequence (P29275 1-332): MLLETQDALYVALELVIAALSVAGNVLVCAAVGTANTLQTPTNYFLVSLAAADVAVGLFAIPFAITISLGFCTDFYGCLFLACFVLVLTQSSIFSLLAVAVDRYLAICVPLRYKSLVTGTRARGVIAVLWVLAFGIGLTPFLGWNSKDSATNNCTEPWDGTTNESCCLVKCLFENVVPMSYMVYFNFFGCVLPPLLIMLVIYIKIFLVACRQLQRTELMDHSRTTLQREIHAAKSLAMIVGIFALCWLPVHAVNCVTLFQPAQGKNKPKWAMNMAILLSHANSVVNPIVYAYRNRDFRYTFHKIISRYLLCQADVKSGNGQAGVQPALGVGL
Briefly: A2bR antagonism IC50, cAMP TR-FRET (Lance Ultra) in HEK-293 cells, NECA as agonist. The arrangement: host or cells: HEK-293. The conditions noted are these: HEK-293 cells expressing A2B receptor; agonist NECA 30 nM (EC90); inhibition of cAMP. The format is cell-based. For orientation: TR-FRET usually uses a lanthanide donor and a delayed reading to cut background.

In the next experiment the target is T2, A2A receptor (Homo sapiens, UniProt P29274).
T2 construct: host or cells: HEK-293
T2 sequence (P29274 whole entry): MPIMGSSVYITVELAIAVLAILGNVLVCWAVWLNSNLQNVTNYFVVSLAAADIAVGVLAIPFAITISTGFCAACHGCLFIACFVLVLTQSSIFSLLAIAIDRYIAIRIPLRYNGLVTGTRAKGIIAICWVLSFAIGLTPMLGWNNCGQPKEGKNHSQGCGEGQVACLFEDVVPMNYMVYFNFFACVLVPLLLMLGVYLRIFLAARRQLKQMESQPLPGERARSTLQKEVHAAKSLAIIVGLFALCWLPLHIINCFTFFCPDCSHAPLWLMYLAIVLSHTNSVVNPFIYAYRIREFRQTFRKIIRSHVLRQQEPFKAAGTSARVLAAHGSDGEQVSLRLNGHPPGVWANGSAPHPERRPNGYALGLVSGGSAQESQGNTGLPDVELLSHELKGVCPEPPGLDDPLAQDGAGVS
Briefly: A2aR antagonism IC50, cAMP TR-FRET in HEK-293 cells, high concentration of adenosine (30 μM).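 Note: compounds added 10 min before adenosine, then 30 min stimulation at room temperature in buffer with 100 µM rolipram and 30 µM EHNA, signal read 1 h after detection reagents.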 The class given is cell-based. The conditions noted are these: HEK-293 cells expressing A2A receptor; agonist adenosine 30 μM; 2% HSA; inhibition of cAMP; read-out: A2AR IC50 (nM) (@30 μM Adenosine).

Experiment [2] has as its target T1, A2B receptor. Nature of the experiment: A2bR antagonism IC50, cAMP TR-FRET in HEK-293 cells, high concentration of adenosine (30 μM).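 Note: compounds preincubated 10 min with cells, then adenosine stimulation 30 min at room temperature in buffer with Rolipram 100 µM and EHNA 30 µM, TR-FRET read after 1 h.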 As to conditions: A2BR IC50 (nM) (@30 μM Adenosine), HEK-293 cells expressing A2B receptor; agonist adenosine 30 μM; 2% HSA; inhibition of cAMP.
Description: (§1) A Time-Resolved Fluorescence Energy Transfer (TR-FRET) assay was used to show the inhibition of this cAMP production in HEK cells upon treatment with compounds of the Formula I of the present disclosure.
(§2) HEK-293 cells expressing A2A receptor (#ES-011-C) or A2B receptor (#ES 013-C) were obtained from PerkinElmer. Cells were maintained in DMEM medium supplemented with 10% FBS and 200 μg/mL of G418 at 37° C. and 5% CO2. The cells were cultured in antibiotic free medium for a period of 16-20 hours prior to the assay. All subsequent steps of the assay are performed at room temperature (22-24° C.). […] About 1500 cells per well were pre-incubated for 10 minutes with the compounds of the present invention before adding the agonist Adenosine at a high concentration (30 μM) for a total stimulation time of 30 minutes. […] The assays were conducted in a stimulation buffer containing 1×DMEM, 5 mM HEPES, 2% Human serum albumin (HSA), 100 μM Rolipram and 30 μM erythro-9-(2-hydroxy-3-nonyl) adenine (EHNA). Serial dilutions of compounds were made in stimulation buffer to achieve a final concentration of high micromolar in a reaction volume of 10 μL. The total reaction volume was 10 μL (5 μL of cells, 2.5 μL of antagonist and 2.5 μL of agonist). […] The stimulation was ended, and the reaction completed by adding 5 μL of 4× Eu-cAMP tracer working solution and 5 μL of 4× ULight-anti-cAMP working solution. The TR FRET signal was measured after 1-hour incubation using a Tecan M1000 or a PerkinElmer Victor Nivo plate reader.

Description for A2A receptor: as §1, §2

On to `Cc1cccc(CC(C)Nc2nc3c(C)c(C)nn3c(N)c2C#N)n1` (single isomer, unassigned) [Example 15, 7-amino-2,3-dimethyl-5-{[1-(6-methylpyridin-2-yl)propan-2-yl]amino}pyrazolo[1,5-a]pyrimidine-6-carbonitrile], for which the concentration for half-maximal inhibition (IC50) at A2B receptor [1] was 102 nM.
In turn, `CCc1c(C)nn2c(N)c(C#N)c(NCCc3ccn(C)n3)nc12` [Example 30] displayed an IC50 at A2B receptor [1] of 4.5 nM.
Consider `CCc1c(C)nn2c(N)c(C#N)c(NCCc3ccn(C4CCC4CO)n3)nc12` (single isomer, unassigned; (+)) [Example 78, (+)-7-amino-3-ethyl-5-((2-(1-(2-(hydroxymethyl)cyclobutyl)-1H-pyrazol-3-yl)ethyl)amino)-2-methylpyrazolo[1,5-a]pyrimidine-6-carbonitrile], for which the IC50 on A2A receptor amounted to 200 nM; on A2B receptor [2], 798 nM.
The matching figures for `Cc1nn2c(N)c(C#N)c(NCCc3cccc(CO)n3)nc2c1Br` [Example 72, 7-amino-3-bromo-5-((2-(6-(hydroxymethyl)pyridine-2-yl)ethyl)amino)-2-methylpyrazolo[1,5-a]pyrimidine-6-carbonitrile]: 362 nM and 3120 nM.
Turning to `Cc1nn2c(N)c(C#N)c(NCCc3ccn(C4CCC4CO)n3)nc2c1C` (single isomer, unassigned; (-)) [Example 104b, (−)-7-amino-5-((2-(1-(2-(hydroxymethyl)cyclobutyl)-1H-pyrazol-3-yl)ethyl)amino)-2,3-dimethylpyrazolo[1,5-a]pyrimidine-6-carbonitrile], the results for the half-maximal inhibitory concentration (IC50) at A2A receptor and at A2B receptor [2] were 102 nM and 2610 nM, respectively.
In the case of `CCCc1c(C)nn2c(N)c(C#N)c(NCCc3cccc(C)n3)nc12` [Example 164, 7-amino-2-methyl-5-((2-(6-methylpyridin-2-yl)ethyl)amino)-3-propylpyrazolo[1,5-a]pyrimidine-6-carbonitrile], the half-maximal inhibitory concentration (IC50) at A2A receptor is 8260 nM; at A2B receptor [2] it was above 15000 nM.
On the same counts, the results for `CCc1c(C)nn2c(N)c(C#N)c(NCCc3ccn(CCCO)n3)nc12` [Example 111, 7-amino-3-ethyl-5-((2-(1-(3-hydroxypropyl)-1H-pyrazol-3-yl)ethyl)amino)-2-methylpyrazolo[1,5-a]pyrimidine-6-carbonitrile] are 666 nM and 2380 nM.
`Cc1nn2c(N)c(C#N)c(NCCc3ccn(C4(CNCCO)CC4)n3)nc2c1Cl` [Example 98, 7-amino-3-chloro-5-((2-(1-(1-(((2-hydroxyethyl)amino)methyl)cyclopropyl)-1H-pyrazol-3-yl)ethyl)amino)-2-methylpyrazolo[1,5-a]pyrimidine-6-carbonitrile]: the half-maximal inhibitory concentration (IC50) on A2A receptor is 100 nM; on A2B receptor [2] it was above 15000 nM.
`CCc1c(C)nn2c(N)c(C#N)c(NCCc3ccn(C4(CN)CC4)n3)nc12` [Example 146, 7-amino-5-((2-(1-(1-(aminomethyl)cyclopropyl)-1H-pyrazol-3-yl)ethyl)amino)-3-ethyl-2-methylpyrazolo[1,5-a]pyrimidine-6-carbonitrile]: the results for the half-inhibitory concentration (IC50) at A2A receptor and at A2B receptor [2] were 255 nM and 2470 nM, respectively.
For the compound `Cc1nn2c(N)c(C#N)c(NCCc3cc(C)n(C4(CO)CC4)n3)nc2c1Br` [Example 89, 7-amino-3-bromo-5-((2-(1-(1-(hydroxymethyl)cyclopropyl)-5-methyl-1H-pyrazol-3-yl)ethyl)amino)-2-methylpyrazolo[1,5-a]pyrimidine-6-carbonitrile], the figures for the IC50 at A2A receptor and on A2B receptor [2] were 66 nM and 2370 nM, respectively.
Take `Cc1nn2c(N)c(C#N)c(NCCc3ccn(C4(CCO)CC4)n3)nc2c1Cl` [Example 112, 7-amino-3-chloro-5-((2-(1-(1-(2-hydroxyethyl)cyclopropyl)-1H-pyrazol-3-yl)ethyl)amino)-2-methylpyrazolo[1,5-a] pyrimidine-6-carbonitrile]: the 50% inhibitory concentration (IC50) at A2A receptor is 84 nM; on A2B receptor [2] it was 10800 nM.
In the case of `CCCc1c(C)nn2c(N)c(C#N)c(NCCc3ccn(C4COCC4CO)n3)nc12` (single isomer, unassigned; (+)) [Example 160a, (+) 7-amino-5-((2-(1-(4-(hydroxymethyl)tetrahydrofuran-3-yl)-1H-pyrazol-3-yl)ethyl)amino)-2-methyl-3-propylpyrazolo[1,5-a]pyrimidine-6-carbonitrile], the half-maximal inhibitory concentration (IC50) turned out to be 579 nM on A2A receptor and 1930 nM at A2B receptor [2].
The matching figures for `Cc1nn2c(N)c(C#N)c(NCCc3cccn(CCCO)c3=O)nc2c1C` [Example 138, 7-amino-5-((2-(1-(3-hydroxypropyl)-2-oxo-1,2-dihydropyridin-3-yl)ethyl)amino)-2,3-dimethylpyrazolo[1,5-a] pyrimidine-6-carbonitrile]: 88 nM and 2050 nM.
For the compound `Cc1nn2c(N)c(C#N)c(NCCc3ccn(C4CCC4CNCCO)n3)nc2c1Cl` (centres unmarked) [Example 117, 7-amino-3-chloro-5-((2-(1-(2-(((2-hydroxyethyl)amino)methyl)cyclobutyl)-1H-pyrazol-3-yl)ethyl)amino)-2-methylpyrazolo[1,5-a]pyrimidine-6-carbonitrile], the half-maximal inhibitory concentration (IC50) stood at 66 nM at A2A receptor and 3060 nM on A2B receptor [2].
As to `Cc1nn2c(N)c(C#N)c(NCCc3ccn(C4(CN)CC4)n3)nc2c1Cl` [Example 68, 7-amino-5-((2-(1-(1-(aminomethyl)cyclopropyl)-1H-pyrazol-3-yl)ethyl)amino)-3-chloro-2-methylpyrazolo[1,5-a]pyrimidine-6-carbonitrile], the results for the concentration for half-maximal inhibition (IC50) at A2A receptor and at A2B receptor [2] were 161 nM and 9380 nM, respectively.
On the same counts, the results for `CCc1c(C)nn2c(N)c(C#N)c(NCCc3cccc(C(C)O)n3)nc12` (single isomer, unassigned; (-)) [Example 159b, (−)-7-amino-3-ethyl-5-((2-(6-(1-hydroxyethyl)pyridine-2-yl)ethyl)amino)-2-methylpyrazolo[1,5-a]pyrimidine-6-carbonitrile] are 457 nM and 1020 nM.
The matching figures for `CCc1c(C)nn2c(N)c(C#N)c(NCCc3cc(C)n(C4COCC4CO)n3)nc12` (single isomer, unassigned; (+)) [Example 168]: 90 nM and 650 nM.
As to `Cc1nn2c(N)c(C#N)c(NCCc3cccn(CCN)c3=O)nc2c1Cl` [Example 125, 7-amino-5-((2-(1-(2-aminoethyl)-2-oxo-1,2-dihydropyridin-3-yl)ethyl)amino)-3-chloro-2-methylpyrazolo[1,5-a] pyrimidine-6-carbonitrile], the half-maximal inhibitory concentration (IC50) on A2A receptor was 767 nM; at A2B receptor [2], above 15000 nM.
Take `CCc1c(C)nn2c(N)c(C#N)c(NCCc3cccn(CCN)c3=O)nc12` [Example 126, 7-amino-5-((2-(1-(2-aminoethyl)-2-oxo-1,2-dihydropyridin-3-yl)ethyl)amino)-3-ethyl-2-methylpyrazolo[1,5-a] pyrimidine-6-carbonitrile]: the IC50 worked out at 1890 nM at A2A receptor and 3550 nM on A2B receptor [2].
Turning to `CCc1c(C)nn2c(N)c(C#N)c(NCCc3cccc(C(C)O)n3)nc12` (single isomer, unassigned; (+)) [Example 159a, (+)-7-amino-3-ethyl-5-((2-(6-(1-hydroxyethyl)pyridin-2-yl)ethyl)amino)-2-methylpyrazolo[1,5-a]pyrimidine-6-carbonitrile], the half-maximal inhibitory concentration (IC50) is 139 nM on A2A receptor and 911 nM on A2B receptor [2].
